Reference: publication PMC4171606, “A novel copper(I) complex induces ER-stress-mediated apoptosis and sensitizes B-acute lymphoblastic leukemia cells to chemotherapeutic agents” (Oncotarget, 2014)

Key:
[1] = tested on: human leukemia cell lines; assay: MTT growth inhibition, panel of twelve leukemia cell lines, 72 h; type: cell-based; conditions: healthy lymphocytes vs B-leukemia cells
Description: [Cu(thp)4][PF6] (CP) was evaluated for its growth inhibition activity on a panel of twelve different human leukemia cell lines (five B-acute lymphoblastic leukemia, three T-acute lymphoblastic leukemia, three acute myeloid leukemia and one chronic myeloid leukemia). Cells were treated for 72 h with CP and cell viability was evaluated by MTT test. […] This abnormal high expression of proteasomal proteins and mRNA seem to be correlated to the hyperproliferation of these cancer cells and to the sensitivity towards proteasome inhibitors.
The human leukemia cell lines RS 4;11, SEM, REH, RCH-ACV, MHH-CALL2, Jurkat, CCRF-CEM, HSB2, HL-60, K562, THP-1, MV4;11 were purchased from the American Type Culture Collection. Cells were cultured in RPMI 1640 (Life Technologies, Italy) supplemented with 10% fetal bovine serum (FBS), glutamine (2 mM; Life Technologies, Italy), penicillin (100 U/ml; Life Technologies, Italy) and streptomycin (100 μg/ml; Life Technologies, Italy), and maintained at 37°C in a humidified atmosphere with 5% CO2. The cytotoxic activity of CP was determined using a standard 3-[4,5-dimethylthiazol-2-yl]-2,5-diphenyltetrazodium bromide (MTT) based colorimetric assay (Sigma-Aldrich, Italy). Briefly, cells were seeded at a density of 2×10^4 cells/well in 96-well microtiter plates. After 24 h, cells were exposed to the test compound. After different times, cell survival was determined by the addition of an MTT solution as previously described.

RS4;11 and SEM cells = assay: Cytochrome c release by flow cytometry; type: cell-based, human; conditions: CP 2.5 μM, 24 h
Description: To determine whether the apoptotic stimuli involved mitochondria alteration, we examined the mitochondrial transmembrane potential (ΔΨmt) by means of the fluorescence dye JC-1.
FIGURE 2 CP induces caspase-dependent apoptosis without mitochondria involvement (A) Assessment of mitochondrial membrane potential (ΔΨmt) after treatment of RS4;11 and SEM cells with CP (2.5 μM) for the indicated times. Cells were stained with the fluorescent probe JC-1. Data are represented as mean ± S.E.M. of three independent experiments. (B) Flow cytometric analysis of RS4;11 and SEM cells treated with CP (2.5 μM) for 24 h showing cytochrome c labeled with a monoclonal antibody conjugated to FITC. Representative image of three experiments with similar results. (C) Cells were incubated with CP 2.5 μM and 5 μM in the presence or absence of the pan-caspase inhibitor z-VAD.fmk (100 μM). Cell viability was determined after 48 h by MTT assay. […]
The mitochondrial membrane potential was measured with the lipophilic cation 5,5',6,6'-tetrachlo-1,1',3,3'-tetraethylbenzimidazolyl-carbocyanine (JC-1) (Life Technologies, Italy) as previously described. Cytochrome c release was analyzed by flow cytometry using a commercial kit (Innocyte flow cytometric cytochrome c release kit, Calbiochem, Italy) following the manufacturer's instructions.

Resting healthy PBMC = assay: MTT growth inhibition, 72 h; type: cell-based, human; conditions: mean ± SE
[2] = tested on: RS4;11, SEM, Jurkat and THP-1 cell lines and PBMC from healthy donors; assay: Cellular uptake, intracellular copper by GF-AAS; type: cell-based, human; conditions: 6.25, 12.5 and 25 μM CP, 24 h, leukemic cells vs healthy PBMC
Description: In an attempt to correlate the cytotoxic activity of CP with its cellular uptake, the intracellular copper content was evaluated in RS4;11, SEM, Jurkat and THP-1 cell lines and PBMC from healthy donors treated for 24 h with increasing concentrations of CP. The intracellular copper amount (Figure 1, panel A) was quantified by GF-AAS analysis (Graphite Furnace Atomic Absorption Spectrometry).
FIGURE 1 CP uptake and effects on cell cycle and apoptosis induction A) RS4;11, SEM, THP1, Jurkat cell lines and healthy PBMC were incubated with 6.25, 12.5 and 25 μM of CP for 24 h. The intracellular accumulation of CP was detected by GF-AAS analysis. B) SEM and RS4;11 cells were treated with the indicated concentrations of CP for 24 h, cell cycle distribution and Sub-G1 contents were analyzed by flow cytometry after cell staining with PI. The percentages of each phase of the cell cycle (G1, S, G2/M) were calculated on living cells whereas the percentages of cells with hypodiploid DNA content peak (subG1) was referred to cell population characterized by the appearance of subG1 peak. C) SEM and RS4;11 cells were incubated with 2.5 μM CP for the indicated times and analyzed by flow cytometry after double staining with Annexin-V-FITC and PI. Data are represented as mean ± S.E.M. of three independent experiments. […]

Q: `F[P-](F)(F)(F)(F)F.OCP(CO)CO.OCP(CO)CO.OCP(CO)CO.OCP(CO)CO.[Cu+]` [CP, [Cu(thp)4][PF6]] was tested. Which “cytotoxic activity on healthy lymphocytes lower than B-leukemia cells” value [1] did it give?
A: 5-10 fold

Q: And the cytochrome c release (RS4;11 and SEM cells)?
A: did not reveal cytochrome c release

Q: What about the GI50 (Resting healthy PBMC) of the same molecule?
A: 22.7 ± 2.9 µM

Q: What about the intracellular copper content [2] of the same molecule?
A: marked increase of copper intracellular content in comparison with healthy PBMC
